The test system of the experiment is normal human dermal fibroblasts (NHDF). Put plainly: [3H] proline incorporation into intracellular and ECM layer proteins (collagen synthesis). Format: cell-based. The note with it: 20 micro g/ml. On the procedure: Normal human dermal fibroblasts (NHDF) were cultured in-vitro with radio labelled [^3H] proline. Collagen is a proline-rich protein. The level of radio labelled proline found in proteins, following culturing of the NHDF, is a measure of the rate of collagen synthesis. Yogurtene™ can be added to the cell culture to measure the effect of Yogurtene™ on the rate of proline uptake (collagen synthesis).
The study investigated the increase in radio labelled proline found in: (i) soluble/secreted proteins, and (ii) intracellular and extra-cellular matrix (ECM) proteins.
Beta-Transforming Growth Factor (β-TGF) and ascorbic acid are known collagen synthesis promoters and were used as controls in both studies.

As for `O=C1O[C@H]([C@@H](O)CO)C(O)=C1O` [Ascorbic acid], the “Proline incorporation into intracellular & ECM layer proteins” value was 12764 Count/min.
